Measured values from patent US20230295118A1 (EnhancedBio Inc., priority 2022, published 2023).

Key:
Assay type in all cases: cell-based
[1] = test system: mantle cell lymphoma cell (Mino or JeKo-1); experiment: Antiproliferative effect, MTS cell viability assay; settings: 72 h, mantle cell lymphoma cell (Mino or JeKo-1), MTS assay, read-out: IC50 (anti-proliferation)
Method in brief: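 Mino cells treated with compounds at 0, 0.0001, 0.001, 0.01, 0.1, 1 μM for 72 h; palbociclib and abemaciclib as positive controls. Viability by MTS, formazan absorbance read at 490 nm.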

[2] = molecular target: T1, CDK4 (Homo sapiens, UniProt P11802); experiment: CDK4 degradation (DC50, Dmax)
T1 construct: endogenous in cells
T1 sequence (P11802 whole entry): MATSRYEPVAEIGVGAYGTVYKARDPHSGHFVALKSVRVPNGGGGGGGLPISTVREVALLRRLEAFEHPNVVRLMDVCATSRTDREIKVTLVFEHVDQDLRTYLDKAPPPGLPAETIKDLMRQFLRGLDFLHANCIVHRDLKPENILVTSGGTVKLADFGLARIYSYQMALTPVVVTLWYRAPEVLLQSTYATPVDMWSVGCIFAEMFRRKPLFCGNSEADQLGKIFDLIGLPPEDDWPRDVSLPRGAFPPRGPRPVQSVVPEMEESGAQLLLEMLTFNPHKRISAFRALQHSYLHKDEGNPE

[3] = molecular target: T2, CDK6 (Homo sapiens, UniProt Q00534); experiment: CDK6 degradation (DC50, Dmax)
T2 construct: endogenous in cells
T2 sequence (Q00534 whole entry): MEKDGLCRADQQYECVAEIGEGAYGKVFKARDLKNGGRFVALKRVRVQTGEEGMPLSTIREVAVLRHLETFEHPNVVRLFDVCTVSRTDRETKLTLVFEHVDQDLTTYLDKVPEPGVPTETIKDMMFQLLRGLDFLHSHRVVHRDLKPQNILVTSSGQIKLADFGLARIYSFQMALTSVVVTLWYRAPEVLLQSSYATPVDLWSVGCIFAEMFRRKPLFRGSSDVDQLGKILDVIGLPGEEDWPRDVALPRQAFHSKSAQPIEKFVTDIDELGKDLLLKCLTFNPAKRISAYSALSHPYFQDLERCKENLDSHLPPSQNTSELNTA

| Structure (SMILES) | IC50 [1] | DC50 [2] | Dmax [2] | DC50 [3] | Dmax [3] |
| --- | --- | --- | --- | --- | --- |
| Cc1nc2c(F)cc(-c3nc(Nc4ccc(CC5CCN(C(=O)C6CN(c7ccc(C(=O)NC8CCC(=O)NC8=O)cc7)C6)CC5)cn4)ncc3F)cc2n1C(C)C (stereo not shown) [Compound 145, N-(2,6-dioxopiperidin-3-yl)-4-(3-(4-((6-((5-fluoro-4-(4-fluoro-1-isopropyl-2-methyl-1H-benzo[d]imidazol-6-yl)pyrimidin-2-yl)amino)pyridin-3-yl)methyl)piperidine-1-carbonyl)azetidin-1-yl)benzamide] | < 50 nM | 50 to 200 nM | > 60% | 50 to 200 nM | > 60% |
| CC(=O)c1c(C)c2cnc(Nc3ccc(N4CCN(C(=O)N5CCC(CN6CCN(c7ccc8c(c7)C(=O)N(C7CCC(=O)NC7=O)C8=O)CC6)CC5)CC4)cn3)nc2n(C2CCCC2)c1=O (stereo not shown) [Compound 11] | 50 to 200 nM | 50 to 200 nM | > 60% | 50 to 200 nM | > 60% |
| CC(=O)c1c(C)c2cnc(Nc3ccc(N4CCN(C(=O)N5CCC(N6CCN(c7ccc8c(c7)CN(C7CCC(=O)NC7=O)C8=O)CC6)CC5)CC4)cn3)nc2n(C2CCCC2)c1=O (stereo not shown) [Compound 4, 3-(5-(4-(1-(4-(6-((6-acetyl-8-cyclopentyl-5-methyl-7-oxo-7,8-dihydropyrido[2,3-d]pyrimidin-2-yl)amino)pyridin-3-yl)piperazine-1-carbonyl)piperidin-4-yl)piperazin-1-yl)-1-oxoisoindolin-2-yl)piperidine-2,6-dione] | 50 to 200 nM | > 200 nM | > 50% | > 200 nM | > 50% |
| Cc1nc2c(F)cc(-c3nc(Nc4ccc(CN5CCN(C6CN(c7ccc(C(=O)NC8CCC(=O)NC8=O)cc7)C6)CC5)cn4)ncc3F)cc2n1C(C)C (stereo not shown) [Compound 96, N-(2,6-dioxopiperidin-3-yl)-4-(3-(4-((6-((5-fluoro-4-(4-fluoro-1-isopropyl-2-methyl-1H-benzo[d]imidazol-6-yl)pyrimidin-2-yl)amino)pyridin-3-yl)methyl)piperazin-1-yl)azetidin-1-yi)benzamide] | < 50 nM | < 50 nM | > 80% | < 50 nM | > 80% |
| CC(=O)c1c(C)c2cnc(Nc3ccc(C4CCN(C(=O)C5CN(c6ccc7c(c6)C(=O)N(C6CCC(=O)NC6=O)C7=O)C5)CC4)cn3)nc2n(C2CCCC2)c1=O (stereo not shown) [Compound 129, 5-(3-(4-(6-((6-acetyl-8-cyclopentyl-5-methyl-7-oxo-7,8-dihydropyrido[2,3-d]pyrimidin-2-yl)amino)pyridin-3-yl)piperidine-1-carbonyl)azetidin-1-yl)-2-(2,6-dioxopiperidin-3-yl)isoindoline-1,3-dione] | 50 to 200 nM | 50 to 200 nM | > 80% | 50 to 200 nM | > 80% |
| Cc1nc2c(F)cc(-c3nc(Nc4ccc(CN5CCN(C6CCN(c7ccc(C(=O)NC8CCC(=O)NC8=O)cc7)CC6)CC5)cn4)ncc3F)cc2n1C(C)C (stereo not shown) [Compound 150, N-(2,6-dioxopiperidin-3-yl)-4-(4-(4-((6-((5-fluoro-4-(4-fluoro-1-isopropyl-2-methyl-1H-benzo[d]imidazol-6-yl)pyrimidin-2-yl)amino)pyridin-3-yl)methyl)piperazin-1-yl)piperidin-1-yl)benzamide] | < 50 nM | < 50 nM | > 80% | < 50 nM | > 80% |
| CC(=O)c1c(C)c2cnc(Nc3ccc(N4CCN(C(=O)C5CCN(c6ccc(NC7CCC(=O)NC7=O)cc6)CC5)CC4)cn3)nc2n(C2CCCC2)c1=O (stereo not shown) [Compound 117, 3-((4-(4-(4-(6-((6-acetyl-8-cyclopentyl-5-methyl-7-oxo-7,8-dihydropyrido[2,3-d]pyrimidin-2-yl)amino)pyridin-3-yl)piperazine-1-carbonyl)piperidin-1-yl)phenyl)amino) piperidine-2,6-dione] | < 50 nM | < 50 nM | > 80% | 50 to 200 nM | > 60% |
| Cc1nc2c(F)cc(-c3nc(Nc4ccc(CC5CCN(CC6CN(c7ccc(C(=O)NC8CCC(=O)NC8=O)cc7)C6)CC5)cn4)ncc3F)cc2n1C(C)C (stereo not shown) [Compound 141, N-(2,6-dioxopiperidin-3-yl)-4-(3-((4-((6-{(5-fluoro-4-(4-fluoro-1-isopropyl-2-methyl-1H-benzo[d]imidazol-6-yl)pyrimidin-2-yl)amino)pyridin-3-yl)methyl)piperidin-1-yl)methyl)azetidin-1-yl)benzamide] | < 50 nM | 50 to 200 nM | > 80% | 50 to 200 nM | > 80% |
| Cc1nc2c(F)cc(-c3nc(Nc4ccc(CN5CCN(C6CCN(c7ccc8c(c7)CN(C7CCC(=O)NC7=O)C8=O)CC6)CC5)cn4)ncc3F)cc2n1C(C)C (stereo not shown) [Compound 166, 3-(5-(4-(4-((6-((5-fluoro-4-(4-fluoro-1-isopropyl-2-methyl-1H-benzo[d]imidazol-6-yl)pyrimidin-2-yl)amino)pyridin-3-yl)methyl)piperazin-1-yl)piperidin-1-yl)-1-oxoisoindolin-2-yl)piperidine-2,6-dione] | < 50 nM | 50 to 200 nM | > 80% | 50 to 200 nM | > 60% |
| CC(=O)c1c(C)c2cnc(Nc3ccc(C4CCN(CC5CN(c6ccc(NC7CCC(=O)NC7=O)cc6)C5)CC4)cn3)nc2n(C2CCCC2)c1=O (stereo not shown) [Compound 128, 3-((4-(3-((4-(6-((6-acetyl-8-cyclopentyl-5-methyl-7-oxo-7,8-dihydropyrido[2,3-d]pyrimidin-2-yl)amino)pyridin-3-yl)piperidin-1-yl)methyl)azetidin-1-yl)phenyl)amino) piperidine-2,6-dione] | < 50 nM | < 50 nM | > 80% | < 50 nM | > 80% |
| CC(=O)c1c(C)c2cnc(Nc3ccc(N4CCN(C(=O)N5CCN(CCC6CCN(c7ccc8c(c7)CN(C7CCC(=O)NC7=O)C8=O)CC6)CC5)CC4)cn3)nc2n(C2CCCC2)c1=O (stereo not shown) [Compound 24, 3-(5-(4-(2-(4-(4-(6-((6-acetyl-8-cyclopentyl-5-methyl-7-oxo-7,8-dihydropyrido[2,3-d]pyrimidin-2-yl)amino)pyridin-3-yl)piperazine-1-carbonyl)piperazin-1-yl)ethyl)piperidin-1-yl)-1-oxoisoindolin-2-yl)piperidine-2,6-dione] | > 200 nM | > 200 nM | > 50% | > 200 nM | > 50% |
| CC(=O)c1c(C)c2cnc(Nc3ccc(N4CCN(CCCCNc5ccc6c(c5)C(=O)N(C5CCC(=O)NC5=O)C6=O)CC4)cn3)nc2n(C2CCCC2)c1=O (stereo not shown) [Compound 53, 5-((4-(4-(6-((6-acetyl-8-cyclopentyl-5-methyl-7-oxo-7,8-dihydropyrido[2,3-d]pyrimidin-2-yl)amino)pyridin-3-yl)piperazin-1-yl)butyl)amino)-2-(2,6-dioxopiperidin-3-yl)isoindoline-1,3-dione] | < 50 nM | 50 to 200 nM | > 60% | 50 to 200 nM | > 80% |
| CC(=O)c1c(C)c2cnc(Nc3ccc(C4CCN(C(=O)C5CN(c6ccc(C(=O)NC7CCC(=O)NC7=O)cc6)C5)CC4)cn3)nc2n(C2CCCC2)c1=O (stereo not shown) [Compound 131, 4-(3-(4-(6-((6-acetyl-8-cyclopentyl-5-methyl-7-oxo-7,8-dihydropyrido[2,3-d]pyrimidin-2-yl)amino)pyridin-3-yl)piperidine-1-carbonyl)azetidin-1-yl)-N-(2,6-dioxopiperidin-3-yl)benzamide] | 50 to 200 nM | 50 to 200 nM | > 60% | 50 to 200 nM | > 60% |
| Cc1nc2c(F)cc(-c3nc(Nc4ccc(CC5CCN(C6CCN(c7ccc8c(c7)CN(C7CCC(=O)NC7=O)C8=O)CC6)CC5)cn4)ncc3F)cc2n1C(C)C (stereo not shown) [Compound 170, 3-(5-(4-((6-((5-fluoro-4-(4-fluoro-1-isopropyl-2-methyl-1H-benzo[d]imidazol-6-yl)pyrimidin-2-yl)amino)pyridin-3-yl)methyl)-[1,4′-bipiperidin]-1′-yl)-1-oxoisoindolin-2-yl)piperidine-2,6-dione] | < 50 nM | < 50 nM | > 80% | < 50 nM | > 60% |
| CC(=O)c1c(C)c2cnc(Nc3ccc(N4CCN(CCC5CCN(C(=O)Nc6ccc7c(c6)C(=O)N(C6CCC(=O)NC6=O)C7=O)CC5)CC4)cn3)nc2n(C2CCCC2)c1=O (stereo not shown) [Compound 45, 4-(2-(4-(6-((6-acetyl-8-cyclopentyl-5-methyl-7-oxo-7,8-dihydropyrido[2,3-d]pyrimidin-2-yl)amino)pyridin-3-yl)piperazin-1-yl)ethyl)-N-(2-(2,6-dioxopiperidin-3-yl)-1,3-dioxoisoindolin-5-yl)piperidine-1-carboxamide] | 50 to 200 nM | 50 to 200 nM | > 60% | 50 to 200 nM | > 60% |
| CC(=O)c1c(C)c2cnc(Nc3ccc(N4CCN(C5CN(c6cccc7c6C(=O)N(C6CCC(=O)NC6=O)C7=O)C5)CC4)cn3)nc2n(C2CCCC2)c1=O (stereo not shown) [Compound 79, 4-(3-(4-(6-((6-acetyl-8-cyclopentyl-5-methyl-7-oxo-7,8-dihydropyrido[2,3-d]pyrimidin-2-yl)amino)pyridin-3-yl)piperazin-1-yl)azetidin-1-yl)-2-(2,6-dioxopiperidin-3-yl)isoindoline-1,3-dione] | 50 to 200 nM | 50 to 200 nM | > 60% | 50 to 200 nM | > 60% |
| CC(=O)c1c(C)c2cnc(Nc3ccc(N4CCN(C(=O)C5CN(c6ccc7c(c6)CN(C6CCC(=O)NC6=O)C7=O)C5)CC4)cn3)nc2n(C2CCCC2)c1=O (stereo not shown) [Compound 122, 3-(5-(3-(4-(6-((6-acetyl-8-cyclopentyl-5-methyl-7-oxo-7,8-dihydropyrido[2,3-d]pyrimidin-2-yl)amino)pyridin-3-yl)piperazine-1-carbonyl)azetidin-1-yl)-1-oxoisoindolin-2-yl) piperidine-2,6-dione] | < 50 nM | < 50 nM | > 80% | < 50 nM | > 80% |
